Source: patent US20070178544A1, “Anti fk778antibodies and high sensitive immunoassay methods” (priority 2004, published 2007)

Assay: Selection of an immunogen: titer of antibody in sera of immunized mice
Format: in vivo
Conditions: immunogen conjugated with bovine thyroglobulin, with FCA, Balb/c mice; four (FR267471, FR266831) or seven (FR270531) immunizations
Procedure: To obtain the selective antibody against FK778, two kinds of immunogens which were conjugated (FR267471 and FR266831) with bovine thyroglobulin (Sigma-Aldrich Corp.) mixed with Freund's complete adjuvant (FCA) (Difco) were immunized in hyperimmune Balb/c mice. After four times immunizations, the titer of antibody against the FR267471-BSA or the FR266831-BSA in sera was measured by enzyme-linked immunosorbent assay. […] To obtain immunogens having higher titer than the two immunogens, another type of immunogen FR270531 was synthesized. […] Accordingly, the present inventors have used FR270531 as an immunogen to produce antibodies directed to FK778, and FR267471 and FR266831 as positive and negative control to select the FK778 antibody specifically binding to the FK778 substance.

Row | Compound | titer of antibody in sera
1 | N#C/C(C(=O)Nc1ccc(C(F)(F)F)cc1)=C(/O)CCCC(=O)O [FR266831, (5Z)-6-cyano-5-hydroxy-7-oxo-7-{[4-(trifluoromethyl)phenyl]amino}-5-heptenoic acid] | not sufficient
2 | C#CCC/C(O)=C(\C#N)C(=O)Nc1ccc(OCCCCCC(=O)O)cc1 [FR267471, 6-(4-{[(2Z)-2-cyano-3-hydroxy-2-hepten-6-ynoyl]amino}phenoxy)hexanoic acid] | not sufficient
3 | C#CCC/C(O)=C(\C#N)C(=O)Nc1ccc(OCCCCCC(=O)Oc2c(F)c(F)c(F)c(F)c2F)cc1 [FR270531, pentafluorophenyl 6-(4-{[(2Z)-2-cyano-3-hydroxy-2-hepten-6-ynoyl]amino}phenoxy)hexanoate] | higher than those of FR267471 and FR266831
